Key:
[1] = target: T1, neuronal nitric oxide synthase (Rattus norvegicus, UniProt P29476); test: Screen for neuronal nitric oxide synthase inhibiting activity (Screen A); type: biochemical
T1 construct: Enzyme was isolated from rat hippocampus or cerebellum; from tissue; host or cells: cerebellum or hippocampus of male Sprague-Dawley rat (20,000 g supernatant)

[2] = target: T2, endothelial nitric oxide synthase (Homo sapiens, UniProt P29474); test: Screen for endothelial nitric oxide synthase inhibiting activity (Screen C); type: biochemical
T2 construct: Enzyme may be isolated from human umbilical vein endothelial cells (HUVECs); host or cells: HUVEC (CHAPS-solubilised particulate fraction)

[3] = target: T3, macrophage nitric oxide synthase (Mus musculus, UniProt P29477); test: Screen for macrophage nitric oxide synthase inhibiting activity (Screen B); type: biochemical, murine; details: ratio of IC50 in Screen B (macrophage isoform) to IC50 in Screen A (neuronal isoform)
T3 construct: Nitric oxide synthase is produced by cells in response to interferon-γ (IFNγ) and lipopolysaccharide (LPS); endogenous in cells; host or cells: J774A-1 murine macrophage cell line, induced with LPS and IFN-gamma (cell lysate)
From the text: The enzyme nitric oxide synthase has a number of isoforms and compounds of formula I, and pharmaceutically acceptable salts thereof, may be screened for nitric oxide synthase inhibiting activity by procedures based on those of Bredt and Snyder in Proc. Natl. Acad. Sci. (1990) 87, 682-685 and Forstermann et. al., Eur. J. Pharm. (1992) 225, 161-165 as follows. Nitric oxide synthase converts ^3 H-L-arginine to ^3 H-L-citrulline which can be separated by cation exchange chromatography and quantified by scintillation counting.
(B) Screen for macrophage nitric oxide synthase inhibiting activity
Enzyme is prepared, after induction, from the cultured murine macrophage cell line J774A-1 (obtained from laboratories of the Imperial Cancer Research Fund). J774A-1 cells are cultured in Dulbecco's Modified Eagles Medium (DMEM) supplemented with 10% foetal bovine serum, 4 mM L-glutamine and antibiotics (100 units/ml penicillin G, 100 μg/ml streptomycin & 0.25 μg/ml amphotericin B). Cells are routinely grown in […] flasks containing 35 ml medium kept at 37° C. and in a humidified atmosphere containing 5% CO2.
Nitric oxide synthase is produced by cells in response to interferon-γ (IFNγ) and lipopolysaccharide (LPS). […]
Labelled L-citrulline is separated from labelled L-arginine using Dowex AG-50W. […] After allowing the samples to dry the L-citrulline is quantified by scintillation counting. […]

T1 sequence (P29476 whole entry): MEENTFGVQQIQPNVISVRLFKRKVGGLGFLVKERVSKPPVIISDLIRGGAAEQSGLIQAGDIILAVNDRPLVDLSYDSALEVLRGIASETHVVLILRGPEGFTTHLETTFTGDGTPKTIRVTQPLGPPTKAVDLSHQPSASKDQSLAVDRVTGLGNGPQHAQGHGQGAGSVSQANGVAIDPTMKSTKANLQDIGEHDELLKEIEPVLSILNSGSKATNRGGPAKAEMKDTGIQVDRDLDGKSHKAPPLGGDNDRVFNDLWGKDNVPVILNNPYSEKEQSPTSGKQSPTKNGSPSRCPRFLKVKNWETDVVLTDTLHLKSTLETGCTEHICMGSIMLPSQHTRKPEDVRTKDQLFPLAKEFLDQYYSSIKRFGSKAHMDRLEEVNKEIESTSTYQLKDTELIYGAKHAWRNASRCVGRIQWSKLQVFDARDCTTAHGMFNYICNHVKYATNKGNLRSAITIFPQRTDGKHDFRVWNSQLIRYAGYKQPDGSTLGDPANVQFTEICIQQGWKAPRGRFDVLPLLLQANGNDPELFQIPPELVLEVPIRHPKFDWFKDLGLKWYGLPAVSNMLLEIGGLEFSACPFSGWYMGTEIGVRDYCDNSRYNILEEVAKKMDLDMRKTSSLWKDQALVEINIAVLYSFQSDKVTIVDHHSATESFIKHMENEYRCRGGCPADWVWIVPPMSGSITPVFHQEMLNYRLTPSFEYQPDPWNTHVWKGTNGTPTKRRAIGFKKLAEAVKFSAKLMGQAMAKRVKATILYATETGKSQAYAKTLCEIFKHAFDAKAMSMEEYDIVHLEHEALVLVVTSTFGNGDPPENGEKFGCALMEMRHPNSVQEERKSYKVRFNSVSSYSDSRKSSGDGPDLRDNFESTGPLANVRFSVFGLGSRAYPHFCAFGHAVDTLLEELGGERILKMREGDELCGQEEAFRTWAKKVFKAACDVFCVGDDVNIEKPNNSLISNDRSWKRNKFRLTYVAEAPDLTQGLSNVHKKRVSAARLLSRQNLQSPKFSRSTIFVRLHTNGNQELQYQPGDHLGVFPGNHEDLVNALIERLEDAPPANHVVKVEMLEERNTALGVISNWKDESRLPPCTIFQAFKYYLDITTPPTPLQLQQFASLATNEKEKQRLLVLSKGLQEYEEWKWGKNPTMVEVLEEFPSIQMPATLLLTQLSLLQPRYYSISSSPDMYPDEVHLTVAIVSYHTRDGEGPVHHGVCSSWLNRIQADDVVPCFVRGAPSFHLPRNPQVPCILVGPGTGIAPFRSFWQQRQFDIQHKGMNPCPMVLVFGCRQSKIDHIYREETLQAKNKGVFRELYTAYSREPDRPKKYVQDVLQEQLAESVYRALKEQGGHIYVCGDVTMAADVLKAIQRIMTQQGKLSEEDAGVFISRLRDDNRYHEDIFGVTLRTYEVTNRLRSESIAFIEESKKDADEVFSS
T2 sequence (P29474 2-1203): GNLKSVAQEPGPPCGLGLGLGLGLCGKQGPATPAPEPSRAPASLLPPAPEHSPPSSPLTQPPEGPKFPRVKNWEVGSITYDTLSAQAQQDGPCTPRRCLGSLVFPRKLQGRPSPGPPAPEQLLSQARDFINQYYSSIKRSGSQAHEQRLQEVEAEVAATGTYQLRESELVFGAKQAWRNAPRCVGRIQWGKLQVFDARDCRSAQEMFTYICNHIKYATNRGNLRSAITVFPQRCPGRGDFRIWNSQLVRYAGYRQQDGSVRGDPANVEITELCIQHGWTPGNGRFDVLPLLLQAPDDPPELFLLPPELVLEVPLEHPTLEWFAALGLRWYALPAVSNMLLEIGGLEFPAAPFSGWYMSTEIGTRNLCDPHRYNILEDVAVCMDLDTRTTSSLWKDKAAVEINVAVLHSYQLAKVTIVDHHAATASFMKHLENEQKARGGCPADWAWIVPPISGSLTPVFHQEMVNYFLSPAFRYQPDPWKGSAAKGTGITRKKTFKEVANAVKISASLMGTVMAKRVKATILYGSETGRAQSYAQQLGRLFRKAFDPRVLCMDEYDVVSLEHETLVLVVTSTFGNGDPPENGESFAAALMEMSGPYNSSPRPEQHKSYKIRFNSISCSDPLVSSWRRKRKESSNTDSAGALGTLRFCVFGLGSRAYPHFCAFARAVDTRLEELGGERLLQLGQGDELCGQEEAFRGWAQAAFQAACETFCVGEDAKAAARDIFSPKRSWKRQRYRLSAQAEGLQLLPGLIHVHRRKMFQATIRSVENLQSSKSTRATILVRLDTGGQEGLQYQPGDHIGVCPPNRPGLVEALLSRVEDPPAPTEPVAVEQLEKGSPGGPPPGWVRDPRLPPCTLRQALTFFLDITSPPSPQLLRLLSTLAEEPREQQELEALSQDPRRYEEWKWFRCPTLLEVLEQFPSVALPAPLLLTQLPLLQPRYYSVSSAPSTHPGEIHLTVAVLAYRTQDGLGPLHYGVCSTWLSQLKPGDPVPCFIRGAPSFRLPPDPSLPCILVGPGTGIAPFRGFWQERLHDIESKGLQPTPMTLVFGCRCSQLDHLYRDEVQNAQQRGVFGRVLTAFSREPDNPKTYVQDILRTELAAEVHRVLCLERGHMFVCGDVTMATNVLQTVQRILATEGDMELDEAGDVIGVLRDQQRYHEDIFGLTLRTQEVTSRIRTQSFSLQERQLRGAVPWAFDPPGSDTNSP

| inhibition at 1 µM ([1]; reference standard at a concentration of 1 μM) [%] | inhibition at 1 µM ([2]; reference standard at a concentration of 1 μM, HUVEC enzyme) [%] | IC50 ([1]; Screen A, neuronal isoform, rat hippocampus or cerebellum supernatant) [µM] | IC50 values more than 10 times that obtained in Screen A [3] | IC50 values more than 10 times that obtained in Screen A ([2]; ratio of IC50 in Screen C (endothelial isoform) to IC50 in Screen A (neuronal isoform)) | Compound |
| --- | --- | --- | --- | --- | --- |
| 60 | 70 to 90 | – | – | – | N=C(NCCC[C@H](N)C(=O)O)N[N+](=O)[O-] [N-nitro-L-arginine, reference compound] |
| – | – | < 10 | more than 10 times | more than 10 times | CCSC(=N)Nc1ccc(CCN(C)Cc2ccccc2)cc1 [Example 1, N-(4-(2-((Phenylmethyl)(methyl)amino)ethyl)phenyl)carbamimidothioic acid ethyl ester] |

— patent US5721247A, “Isothiourea derivatives useful in therapy” (priority 1994, dated 1998)
